ChEMBL document CHEMBL1201862, “PubChem BioAssay data set” (2004)
Activity calls are given as the source filed them.

Columns and labels:
[1] = target: Voltage-dependent T-type calcium channel subunit alpha-1H (Homo sapiens, UniProt O95180); assay type: functional;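 note: channel activity triggered by adding a high calcium stimulation buffer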
[2] = target: T1, Neuropeptides B/W receptor type 1 (Homo sapiens, UniProt P48145); experiment: Fluorescence-based dose response cell-based high throughput screening assay to identify antagonists of the G-protein coupled receptor 7 (GPR7). [Related pubchem assays: 1952 (Screening assay (GPR7 antagonists).), 1880 (Summary AID.)]; assay type: functional
T1 sequence (P48145 whole entry): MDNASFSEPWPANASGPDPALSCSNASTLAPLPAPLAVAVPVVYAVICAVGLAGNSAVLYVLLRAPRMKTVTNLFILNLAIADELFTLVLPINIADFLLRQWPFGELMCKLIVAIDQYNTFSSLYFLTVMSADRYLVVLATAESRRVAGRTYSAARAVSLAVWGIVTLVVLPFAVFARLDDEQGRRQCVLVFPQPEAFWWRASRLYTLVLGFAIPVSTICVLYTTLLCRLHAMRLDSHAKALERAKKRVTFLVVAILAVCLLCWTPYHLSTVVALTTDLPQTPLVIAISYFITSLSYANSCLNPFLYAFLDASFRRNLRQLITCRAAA

[3] = target: Melanin-concentrating hormone receptor 1 (Homo sapiens, UniProt Q99705); experiment: Fluorescence-based counterscreen for antagonists of the G-protein coupled receptor 7 (GPR7): cell-based high throughput dose response assay to identify antagonists of the melanin-concentrating hormone receptor 1 (MCHR1).; assay type: functional
Chain of Melanin-concentrating hormone receptor 1 (Q99705 whole entry): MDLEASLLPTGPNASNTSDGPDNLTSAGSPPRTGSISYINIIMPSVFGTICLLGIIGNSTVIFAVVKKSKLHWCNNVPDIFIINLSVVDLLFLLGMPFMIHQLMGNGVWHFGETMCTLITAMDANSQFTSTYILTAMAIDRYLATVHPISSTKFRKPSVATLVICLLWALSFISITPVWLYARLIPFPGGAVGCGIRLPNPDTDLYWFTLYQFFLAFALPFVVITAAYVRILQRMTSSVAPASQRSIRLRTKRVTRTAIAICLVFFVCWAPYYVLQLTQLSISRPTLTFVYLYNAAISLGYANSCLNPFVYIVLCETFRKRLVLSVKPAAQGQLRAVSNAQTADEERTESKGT

[4] = target: T2, Neuropeptide Y receptor type 2 (Homo sapiens, UniProt P49146); experiment: Fluorescence-based counterscreen for agonists of NPY-Y1: cell-based high-throughput dose response assay for agonists of NPY-Y2.; assay type: functional
T2 sequence (P49146 whole entry): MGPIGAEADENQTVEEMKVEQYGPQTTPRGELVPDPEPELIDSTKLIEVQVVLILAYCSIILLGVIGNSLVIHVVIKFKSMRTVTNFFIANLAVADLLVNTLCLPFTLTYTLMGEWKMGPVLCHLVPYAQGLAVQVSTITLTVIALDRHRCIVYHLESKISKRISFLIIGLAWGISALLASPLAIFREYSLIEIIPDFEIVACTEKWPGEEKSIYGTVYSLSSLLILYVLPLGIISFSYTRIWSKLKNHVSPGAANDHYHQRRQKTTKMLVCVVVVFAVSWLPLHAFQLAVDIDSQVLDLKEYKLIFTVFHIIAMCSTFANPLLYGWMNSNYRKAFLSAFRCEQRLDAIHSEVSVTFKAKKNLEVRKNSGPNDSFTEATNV

[5] = target: T3, Neuropeptide Y receptor type 1 (Homo sapiens, UniProt P25929); experiment: Fluorescence-based dose response cell-based high-throughput screening assay for agonists of NPY-Y1. [Related pubchem assays: 1697 (Screening assay (NPY-Y1 agonists).), 1359 (Screening assay (NPY-Y2 potentiators or agonists).), 1304 (Screening assay (NPY-Y1 potentiators or agonists).), 1704 (Screening assay (CNGC inhibitors).), 1791 (Summary AID.)]; assay type: functional
T3 sequence (P25929 whole entry): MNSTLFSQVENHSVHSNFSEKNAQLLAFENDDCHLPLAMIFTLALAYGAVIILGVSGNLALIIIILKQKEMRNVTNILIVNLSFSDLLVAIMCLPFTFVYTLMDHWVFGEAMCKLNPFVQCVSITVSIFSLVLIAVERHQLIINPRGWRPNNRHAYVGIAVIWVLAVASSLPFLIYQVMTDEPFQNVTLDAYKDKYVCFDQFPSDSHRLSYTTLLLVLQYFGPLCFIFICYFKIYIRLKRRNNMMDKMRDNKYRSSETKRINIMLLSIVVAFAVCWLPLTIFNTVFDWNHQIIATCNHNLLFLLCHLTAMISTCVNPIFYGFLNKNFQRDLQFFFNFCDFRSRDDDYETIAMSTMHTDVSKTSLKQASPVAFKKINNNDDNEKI

HEK293 [6] = experiment: Fluorescence-based counterscreen for potentiators or agonists of NPY-Y1: cell-based high-throughput dose response assay for inhibitors of cyclic nucleotide gated ion channel (CNGC) activity. In this assay, the parental HEK293 cell line transfected with a cyclic-nucleotide gated ion channel (CNGC)-based cAMP sensor is used to measure inhibition of isoproterenol-induced CNGC …; assay type: functional; settings: Homo sapiens
Cytochrome P450 2D6 [7] = target: T4, Cytochrome P450 2D6 (Homo sapiens, UniProt P10635); experiment: qHTS Assay for Inhibitors and Substrates of Cytochrome P450 2D6. [Related pubchem assays: 410 ]; assay type: ADME; settings: read-out: Potency
T4 sequence (P10635 whole entry): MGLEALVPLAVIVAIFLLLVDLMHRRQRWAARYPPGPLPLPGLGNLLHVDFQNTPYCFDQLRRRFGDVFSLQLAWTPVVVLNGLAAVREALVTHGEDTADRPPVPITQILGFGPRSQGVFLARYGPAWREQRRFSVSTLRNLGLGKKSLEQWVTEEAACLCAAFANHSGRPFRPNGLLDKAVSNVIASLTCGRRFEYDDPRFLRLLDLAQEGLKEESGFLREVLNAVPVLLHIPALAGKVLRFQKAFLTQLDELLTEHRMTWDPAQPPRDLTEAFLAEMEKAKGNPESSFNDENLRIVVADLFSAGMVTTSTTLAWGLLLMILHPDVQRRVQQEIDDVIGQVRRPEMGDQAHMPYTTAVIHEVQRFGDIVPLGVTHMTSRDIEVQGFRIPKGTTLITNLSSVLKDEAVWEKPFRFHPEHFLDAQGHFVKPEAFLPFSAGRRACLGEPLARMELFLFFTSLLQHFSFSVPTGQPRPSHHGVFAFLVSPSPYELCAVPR

Cytochrome P450 3A4 = Cytochrome P450 3A4 (Homo sapiens, UniProt P08684); settings: Potency;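 note: confirmatory qHTS run detecting inhibitors and substrates of CYP3A4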
Chain of Cytochrome P450 3A4 (P08684 whole entry): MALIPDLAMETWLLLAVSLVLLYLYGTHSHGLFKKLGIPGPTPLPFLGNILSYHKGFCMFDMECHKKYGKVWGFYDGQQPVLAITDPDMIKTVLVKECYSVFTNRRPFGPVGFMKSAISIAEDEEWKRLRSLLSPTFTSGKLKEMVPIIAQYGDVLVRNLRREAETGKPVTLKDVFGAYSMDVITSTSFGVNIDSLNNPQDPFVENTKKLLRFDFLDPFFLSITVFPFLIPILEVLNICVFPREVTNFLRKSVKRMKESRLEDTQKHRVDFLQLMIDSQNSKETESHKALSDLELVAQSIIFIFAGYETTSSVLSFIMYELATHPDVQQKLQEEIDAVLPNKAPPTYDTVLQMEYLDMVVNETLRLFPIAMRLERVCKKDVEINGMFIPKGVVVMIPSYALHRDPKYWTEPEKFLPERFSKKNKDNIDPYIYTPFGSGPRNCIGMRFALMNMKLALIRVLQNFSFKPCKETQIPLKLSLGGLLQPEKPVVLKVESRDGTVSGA

Vero = experiment: Vero E6 cell cytotoxicity, SAR follow-up, cytotoxicity control for West Nile virus antiviral project, synthesized analogs (AID 2244); assay type: functional; settings: Chlorocebus sabaeus
[8] = target: Serine/threonine-protein phosphatase PP1-alpha catalytic subunit (Homo sapiens, UniProt P62136); experiment: PP1 phosphatase inhibitors, dose response, biochemical, fluorescence (AID 2403);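 note: phosphatase turnover of OMFP into fluorescent 3-O-methylfluorescein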
Chain of Serine/threonine-protein phosphatase PP1-alpha catalytic subunit (P62136 whole entry): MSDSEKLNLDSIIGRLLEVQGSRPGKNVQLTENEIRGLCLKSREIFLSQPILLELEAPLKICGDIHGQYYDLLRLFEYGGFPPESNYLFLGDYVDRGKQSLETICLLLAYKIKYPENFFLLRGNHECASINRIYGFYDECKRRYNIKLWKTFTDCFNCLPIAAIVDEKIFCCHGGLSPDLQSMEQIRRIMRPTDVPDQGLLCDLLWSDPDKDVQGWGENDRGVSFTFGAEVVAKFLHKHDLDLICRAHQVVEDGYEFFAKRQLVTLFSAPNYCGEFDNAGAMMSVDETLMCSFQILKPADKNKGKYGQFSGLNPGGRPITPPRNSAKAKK

[9] = target: Serine/threonine-protein phosphatase (Homo sapiens, UniProt Q9BPW0); experiment: Counterscreen for inhibitors of PP1: fluorescence-based biochemical high throughput dose response assay to identify inhibitors of Protein Phosphatase 5 (PP5). [Related pubchem assays: 2034 (Summary (PP5 inhibitors)), 1987 (PP5 inhibitors in singlate), 2235 (PP1 inhibitors in singlate)]
Chain of Serine/threonine-protein phosphatase (Q9BPW0 whole entry): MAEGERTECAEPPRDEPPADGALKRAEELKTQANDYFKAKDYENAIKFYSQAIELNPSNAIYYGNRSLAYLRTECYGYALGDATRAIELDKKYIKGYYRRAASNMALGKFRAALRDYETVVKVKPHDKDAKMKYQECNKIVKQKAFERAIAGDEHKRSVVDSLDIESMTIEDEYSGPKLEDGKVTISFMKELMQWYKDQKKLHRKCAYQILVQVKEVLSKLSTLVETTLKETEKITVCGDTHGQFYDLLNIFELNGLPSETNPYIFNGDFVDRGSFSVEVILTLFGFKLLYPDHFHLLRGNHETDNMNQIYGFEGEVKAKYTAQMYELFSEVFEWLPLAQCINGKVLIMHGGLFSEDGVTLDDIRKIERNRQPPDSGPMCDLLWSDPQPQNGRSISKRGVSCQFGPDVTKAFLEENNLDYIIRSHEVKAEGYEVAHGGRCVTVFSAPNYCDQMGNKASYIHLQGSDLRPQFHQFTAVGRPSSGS

Cytochrome P450 2C9 [10] = target: T5, Cytochrome P450 2C9 (Homo sapiens, UniProt P11712); settings: Potency
T5 sequence (P11712 whole entry): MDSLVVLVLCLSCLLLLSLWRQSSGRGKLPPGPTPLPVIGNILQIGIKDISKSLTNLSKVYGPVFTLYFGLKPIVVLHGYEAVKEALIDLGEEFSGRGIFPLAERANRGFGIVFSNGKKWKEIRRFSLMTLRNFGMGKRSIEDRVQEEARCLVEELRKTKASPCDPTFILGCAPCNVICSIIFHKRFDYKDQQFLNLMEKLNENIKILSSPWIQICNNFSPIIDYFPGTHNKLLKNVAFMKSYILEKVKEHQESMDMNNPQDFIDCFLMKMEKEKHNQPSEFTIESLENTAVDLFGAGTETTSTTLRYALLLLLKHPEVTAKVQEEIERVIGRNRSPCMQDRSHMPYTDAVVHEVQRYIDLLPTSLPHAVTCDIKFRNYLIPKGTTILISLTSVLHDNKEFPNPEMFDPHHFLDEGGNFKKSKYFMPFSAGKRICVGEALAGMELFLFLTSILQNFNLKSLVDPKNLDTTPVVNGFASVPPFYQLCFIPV

Cytochrome P450 1A2 = target: T6, Cytochrome P450 1A2 (Homo sapiens, UniProt P05177);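 note: PubChem cytochrome P450 panel assay, CYP1A2 panel member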
T6 sequence (P05177 whole entry): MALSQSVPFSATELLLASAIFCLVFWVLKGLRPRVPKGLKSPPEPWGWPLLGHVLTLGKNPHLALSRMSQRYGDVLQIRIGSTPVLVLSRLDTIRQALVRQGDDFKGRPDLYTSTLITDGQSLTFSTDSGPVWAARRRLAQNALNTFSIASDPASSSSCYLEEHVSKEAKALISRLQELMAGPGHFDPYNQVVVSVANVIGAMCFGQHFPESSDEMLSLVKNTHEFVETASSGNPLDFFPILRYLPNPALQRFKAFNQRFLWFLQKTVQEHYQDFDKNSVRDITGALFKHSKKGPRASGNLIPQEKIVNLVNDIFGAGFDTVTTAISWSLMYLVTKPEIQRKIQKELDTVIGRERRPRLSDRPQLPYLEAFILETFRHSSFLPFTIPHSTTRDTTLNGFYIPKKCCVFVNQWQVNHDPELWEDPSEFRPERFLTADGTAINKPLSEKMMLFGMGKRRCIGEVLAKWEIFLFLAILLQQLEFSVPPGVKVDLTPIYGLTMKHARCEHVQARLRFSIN

Cytochrome P450 2C9 [11] = target: T5, Cytochrome P450 2C9
Cytochrome P450 2D6 [12] = target: T4, Cytochrome P450 2D6
[13] = target: T2, Neuropeptide Y receptor type 2; experiment: Fluorescence-based cell-based high-throughput dose response assay for agonists of NPY-Y2. [Related pubchem assays: 1703 (Screening assay (CNGC inhibitors).), 1359 (Screening assay (NPY-Y2 potentiators or agonists).), 1304 (Screening assay (NPY-Y1 potentiators or agonists).), 1710 (Screening assay (NPY-Y2 agonists).), 1791 (Summary AID.)]; assay type: functional
[14] = target: T3, Neuropeptide Y receptor type 1; experiment: Fluorescence-based counterscreen for agonists of NPY-Y2: cell-based high-throughput dose response assay for agonists of NPY-Y1.; assay type: functional
HEK293 [15] = experiment: Fluorescence-based counterscreen for potentiators or agonists of NPY-Y2: cell-based high-throughput dose response assay to identify inhibitors of cyclic nucleotide gated ion channel (CNGC) activity. In this assay, the parental HEK293 cell line transfected with a cyclic-nucleotide gated ion channel (CNGC)-based cAMP sensor is used to measure inhibition of isoproterenol-induced CNGC activity by test compound.; assay type: functional; settings: Homo sapiens
Estrogen receptor beta [16] = target: T7, Estrogen receptor beta (Homo sapiens, UniProt Q92731); experiment: ERβ–SRC-3 coactivator interaction inhibitors, confirmation, orthogonal assay, biochemical, ELISA, streptavidin-HRP readout (AID 1060)
T7 sequence (Q92731 whole entry): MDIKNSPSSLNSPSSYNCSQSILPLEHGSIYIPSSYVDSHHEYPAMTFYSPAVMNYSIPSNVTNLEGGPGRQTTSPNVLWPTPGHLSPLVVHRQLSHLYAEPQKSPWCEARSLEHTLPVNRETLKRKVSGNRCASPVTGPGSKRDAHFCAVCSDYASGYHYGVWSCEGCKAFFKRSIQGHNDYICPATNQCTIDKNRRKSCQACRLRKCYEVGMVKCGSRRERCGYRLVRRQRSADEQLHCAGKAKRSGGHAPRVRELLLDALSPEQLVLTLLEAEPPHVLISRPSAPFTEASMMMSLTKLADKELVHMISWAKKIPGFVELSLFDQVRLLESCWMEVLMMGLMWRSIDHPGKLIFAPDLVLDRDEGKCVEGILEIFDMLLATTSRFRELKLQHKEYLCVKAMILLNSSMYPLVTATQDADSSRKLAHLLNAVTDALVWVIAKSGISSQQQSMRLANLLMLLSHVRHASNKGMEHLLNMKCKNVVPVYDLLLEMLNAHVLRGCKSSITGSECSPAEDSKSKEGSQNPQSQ

[17] = target: T8, Zinc finger protein mex-5 (Caenorhabditis elegans, UniProt Q9XUB2); experiment: MEX-5/TCR-2 RNA interaction inhibitors, dose response, biochemical, C. elegans, fluorescence polarization (AID 1960)
T8 sequence (Q9XUB2 whole entry): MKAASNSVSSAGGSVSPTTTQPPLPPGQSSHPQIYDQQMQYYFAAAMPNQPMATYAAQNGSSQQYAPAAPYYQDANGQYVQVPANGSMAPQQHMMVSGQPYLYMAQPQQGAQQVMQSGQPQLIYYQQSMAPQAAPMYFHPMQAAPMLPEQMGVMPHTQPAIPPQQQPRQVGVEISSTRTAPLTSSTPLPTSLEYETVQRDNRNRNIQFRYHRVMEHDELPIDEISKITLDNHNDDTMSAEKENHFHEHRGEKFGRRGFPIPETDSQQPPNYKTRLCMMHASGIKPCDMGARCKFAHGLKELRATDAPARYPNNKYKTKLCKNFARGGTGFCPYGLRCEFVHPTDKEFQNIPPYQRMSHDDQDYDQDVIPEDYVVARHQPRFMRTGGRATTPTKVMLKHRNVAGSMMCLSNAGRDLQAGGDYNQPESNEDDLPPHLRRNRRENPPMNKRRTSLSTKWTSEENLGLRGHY

Large T antigen = Large T antigen (Simian virus 40, UniProt P03070); assay type: functional, Betapolyomavirus macacae;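 note: Confirmatory-stage PubChem screen for compounds that inhibit SV40 T antigen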
Chain of Large T antigen (P03070 whole entry): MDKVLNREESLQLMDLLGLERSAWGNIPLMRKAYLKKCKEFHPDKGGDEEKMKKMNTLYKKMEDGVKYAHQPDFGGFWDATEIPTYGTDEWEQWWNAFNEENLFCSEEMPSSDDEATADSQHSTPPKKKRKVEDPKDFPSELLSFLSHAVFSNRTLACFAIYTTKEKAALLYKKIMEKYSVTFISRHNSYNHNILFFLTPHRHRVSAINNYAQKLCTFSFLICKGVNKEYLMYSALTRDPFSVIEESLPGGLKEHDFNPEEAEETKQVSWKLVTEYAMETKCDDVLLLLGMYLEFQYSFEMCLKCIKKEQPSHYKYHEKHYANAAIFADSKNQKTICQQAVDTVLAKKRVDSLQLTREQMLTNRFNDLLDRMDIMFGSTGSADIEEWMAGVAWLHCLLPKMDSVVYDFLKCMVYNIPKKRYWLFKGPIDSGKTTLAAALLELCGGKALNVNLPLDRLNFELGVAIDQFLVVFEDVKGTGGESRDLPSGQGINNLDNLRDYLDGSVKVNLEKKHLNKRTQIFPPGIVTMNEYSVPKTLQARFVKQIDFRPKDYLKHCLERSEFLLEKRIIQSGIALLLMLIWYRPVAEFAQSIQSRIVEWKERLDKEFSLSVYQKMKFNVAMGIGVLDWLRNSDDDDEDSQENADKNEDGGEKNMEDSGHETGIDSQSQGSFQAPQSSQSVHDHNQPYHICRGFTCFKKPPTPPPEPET

Estrogen receptor beta [18] = target: T7, Estrogen receptor beta
Leucine aminopeptidase = target: T9, Leucine aminopeptidase (Plasmodium falciparum 3D7, UniProt Q8IL11); experiment: P. falciparum M17LAP inhibitors, primary screen, biochemical, fluorogenic H-Leu-NHMec substrate, 1536-well (AID 1619); assay type: functional
T9 sequence (Q8IL11 whole entry): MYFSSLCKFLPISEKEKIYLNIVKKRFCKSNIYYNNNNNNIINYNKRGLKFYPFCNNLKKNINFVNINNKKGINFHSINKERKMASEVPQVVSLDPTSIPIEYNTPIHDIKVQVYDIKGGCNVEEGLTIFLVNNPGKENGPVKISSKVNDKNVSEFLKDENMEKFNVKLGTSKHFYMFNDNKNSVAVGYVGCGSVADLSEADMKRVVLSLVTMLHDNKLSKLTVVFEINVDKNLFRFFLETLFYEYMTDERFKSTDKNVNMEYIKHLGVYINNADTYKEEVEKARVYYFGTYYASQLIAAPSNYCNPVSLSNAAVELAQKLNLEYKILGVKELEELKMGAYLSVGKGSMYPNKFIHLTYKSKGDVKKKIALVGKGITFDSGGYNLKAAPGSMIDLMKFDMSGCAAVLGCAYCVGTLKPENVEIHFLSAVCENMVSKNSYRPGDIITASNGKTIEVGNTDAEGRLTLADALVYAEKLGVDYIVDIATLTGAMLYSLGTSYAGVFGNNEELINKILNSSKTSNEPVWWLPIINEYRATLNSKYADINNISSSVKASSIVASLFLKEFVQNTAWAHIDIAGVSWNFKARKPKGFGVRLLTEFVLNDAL

Aspartyl aminopeptidase = Aspartyl aminopeptidase (Plasmodium falciparum 3D7, UniProt Q8I2J3)
Chain of Aspartyl aminopeptidase (Q8I2J3 whole entry): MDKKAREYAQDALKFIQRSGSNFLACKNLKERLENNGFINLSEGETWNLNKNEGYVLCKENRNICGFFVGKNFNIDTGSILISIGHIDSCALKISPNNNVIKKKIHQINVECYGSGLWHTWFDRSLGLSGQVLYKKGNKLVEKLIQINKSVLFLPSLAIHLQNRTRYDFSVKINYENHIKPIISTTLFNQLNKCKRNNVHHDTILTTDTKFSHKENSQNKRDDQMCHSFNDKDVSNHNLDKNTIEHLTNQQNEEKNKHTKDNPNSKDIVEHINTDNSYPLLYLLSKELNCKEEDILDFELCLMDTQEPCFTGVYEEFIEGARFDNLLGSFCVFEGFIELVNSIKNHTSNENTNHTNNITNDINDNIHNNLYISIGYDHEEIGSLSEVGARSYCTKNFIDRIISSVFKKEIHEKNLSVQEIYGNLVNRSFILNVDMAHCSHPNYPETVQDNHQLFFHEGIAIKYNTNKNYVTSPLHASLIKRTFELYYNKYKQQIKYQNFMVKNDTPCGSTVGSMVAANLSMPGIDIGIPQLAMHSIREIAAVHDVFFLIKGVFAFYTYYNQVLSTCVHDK

Procathepsin L = Procathepsin L (Homo sapiens, UniProt P07711)
Chain of Procathepsin L (P07711 whole entry, the tested form may be a part): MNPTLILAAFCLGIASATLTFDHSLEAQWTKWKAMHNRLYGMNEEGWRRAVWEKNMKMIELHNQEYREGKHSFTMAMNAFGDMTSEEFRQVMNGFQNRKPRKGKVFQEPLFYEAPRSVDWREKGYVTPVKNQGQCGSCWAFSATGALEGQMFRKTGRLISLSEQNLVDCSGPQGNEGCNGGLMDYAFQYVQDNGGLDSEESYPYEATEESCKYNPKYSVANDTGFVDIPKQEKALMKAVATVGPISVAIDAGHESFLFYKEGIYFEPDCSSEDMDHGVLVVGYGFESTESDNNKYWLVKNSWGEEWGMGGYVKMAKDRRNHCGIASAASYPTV

[19] = target: T10, RNA-binding protein pos-1 (Caenorhabditis elegans, UniProt G5EF15); experiment: inhibitors of POS-1/mex-3 RNA binding, dose response, biochemical, fluorescence polarization (AID 1964);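 note: purified POS-1 fused to maltose binding protein made in E. coli; potency of compounds blocking POS-1 binding to fluorescent RNA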
T10 sequence (G5EF15 whole entry): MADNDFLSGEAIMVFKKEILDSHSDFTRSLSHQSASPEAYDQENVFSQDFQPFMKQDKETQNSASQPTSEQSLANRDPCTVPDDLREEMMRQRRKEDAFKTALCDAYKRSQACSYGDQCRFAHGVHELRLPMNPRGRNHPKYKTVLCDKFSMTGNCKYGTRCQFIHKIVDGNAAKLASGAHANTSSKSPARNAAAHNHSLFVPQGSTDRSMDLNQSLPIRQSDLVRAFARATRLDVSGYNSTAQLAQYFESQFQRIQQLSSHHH

Clc1ccccc1-c1nnn(Cc2ccc(-c3nnn[nH]3)cc2)n1
EC50 [1]: 4.37 µM (active)
IC50 [2]: > 43.8 µM (not active)
IC50 [3]: > 43.8 µM (not active)

COc1ccc(-n2nc3ccc(NS(C)(=O)=O)cc3n2)cc1Cl
EC50 [4]: > 35.4 µM (not active)
EC50 [5]: > 35.4 µM (not active)
IC50 (HEK293 [6]): > 35.4 µM (not active)

C=CCOCC/C=C1/c2ccccc2C(OC)C1C (stereo unspecified)
AC50 (Cytochrome P450 2D6 [7]): 3.16 µM (inconclusive)
AC50 (Cytochrome P450 3A4): 3.16 µM (inconclusive)

O=C(Nc1nc(-c2ccc(Cl)cc2)cs1)c1ccc(Cl)cc1
CC50 (Vero): > 40 µM (active)

COc1ccc(NC(=O)C2C3CCC(O3)C2C(=O)O)c(OC)c1 (stereo unspecified)
IC50 [8]: 4.95 µM (active)
IC50 [9]: 4.79 µM (active)

O=C1NCN(c2ccccc2)C12CCN(C[C@H]1COc3ccccc3O1)CC2
AC50 (Cytochrome P450 2C9 [10]): 31.6 µM (inconclusive)
AC50 (Cytochrome P450 1A2): 20 µM (inconclusive)
AC50 (Cytochrome P450 2C9 [11]): 15.8 µM (inconclusive)

Cc1cccc(C)c1OCC(O)CNC(C)(C)C (stereo unspecified)
AC50 (Cytochrome P450 2D6 [12]): 8.91 µM (inconclusive)
EC50 [13]: > 35.4 µM (not active)
EC50 [14]: > 35.4 µM (not active)
EC50 (HEK293 [15]): 17.9 µM (not active)

Cc1nc(-c2ccc(O)c(O)c2)cs1
IC50 (Estrogen receptor beta [16]): 87.3 µM (not active)
EC50 [17]: 21.3 µM (active)
IC50 (Large T antigen): 6.46 µM (active)
IC50 (Estrogen receptor beta [18]): 10.2 µM (active)
IC50 (Leucine aminopeptidase): 25.1 µM (active)
IC50 (Aspartyl aminopeptidase): 1.3 µM (active)
IC50 (Procathepsin L): > 59.6 µM (not active)
EC50 [19]: 36.6 µM (active)
